Twelve compounds from US20260028343A1, “Substituted Imidazopyrazine Compounds as Ligand Directed Degraders of IRAK3” (Celgene Corporation, priority 2022, published 2026) can be followed below.

This experiment addresses T1, IRAK3-ePL (Homo sapiens, UniProt Q9Y616).
T1 construct: expressed in transfected cells; host or cells: 293T CRBN OE / GSPT1 G575N KI cells, lentiviral transduction, puromycin selection
Put plainly: IRAK3-ePL Overexpressing Degradation Assay. It counts as cell-based. To be noted: IRAK3-ePL Lenti-X 293T CRBN/GSPT1 G575N cells, overnight incubation; for Dmax: HEK-293T, top dose 10 μM, maximum percentage loss of target protein; for DC50: read-out: IRAK3 ePL degradation EC50. The protocol:
Stable cell lines were generated by the following protocol. 3×10^5 Lenti-X 293T cells (Clonetech) were plated in 0.8 mL of media in a 12-well plate and incubated overnight at 37° C./5% CO2. Packaging plasmid (0.4 μg, pMD), envelope plasmid (0.4 μg, pSP), and lentiviral transfer IRAK3-ePL plasmid (0.8 μg, IRAK3 sequence NM_007199.3) were mixed in 0.1 mL of Opti-MEM and incubated for 5 min. Simultaneously, 2.4 μL of Lipofectamine 2000 (Invitrogen) was added to 0.1 mL of Opti-MEM (Gibco) and incubated for 5 min. The plasmid DNA and lipofectamine were combined and the mixture was allowed to incubate for 20 min.DNA:Lipofectamine Opti-MEM mixtures were then added to previously plated cells dropwise and the cells were incubated for ˜16 h at 37° C./5% CO2. Following incubation, the media was removed and 1.2 mL of fresh media was added per well. Lenti-X 293T cells were incubated for ˜30 h at 37° C./5% CO2. 0.5×10^6 293T^CRBN OE/GSPT1 G575N KI cells were plated in 0.5 mL of media/well of a 12-well plate and incubated for ˜16 h at 37° C./5% CO2. Following incubation, media was removed from the Lenti-X 293T wells and passed through a […]. Part of the viral supernatant was used to transduce cells and the rest was stored at −80° C. Viruses were then added individually (0.5 mL virus) to each well of the 293T^CRBN OE/GSPT1 G575N KI cells, followed by addition of polybrene (10 mg/mL Millipore) to each well at a final concentration of 5.0 μg/mL. Cells were incubated for ˜24 h at 37° C./5% CO2. After aspirating media off plates, cells were washed with DPBS, trypsinized and plated in a 10 cm dish in 15 mL of media and 1 μg/mL puromycin. Following incubation of cells for ˜72 h at 37° C./5% CO2, media was aspirated off plates, and cells were washed with DPBS and trypsinized. The cells were plated in a 15 cm dish in 40 mL of media with 1.0 μg/mL Puromycin (Gibco) and incubated for ˜72 h at 37° C./5% CO2. Following incubation, media was removed and cells were washed with DPBS and trypsinized. The majority of cells were resuspended in Invitrogen freezing media and stored away (˜6-8×10^6 cells/vial).
IRAK3-ePL cellular dose response curve degradation assays were performed by the following protocol. Compounds to be tested were dispensed into a white 384-well tissue-culture treated plate using an acoustic liquid handler. Dilutions were prepared based on a 25 μL assay volume in duplicate 10 point 3-fold serial dilutions starting with a 10 μM dose. Negative control wells were included, which only contain 0.2% DMSO to calculate 100% signal. Positive control wells containing 30 μM Ataluren (luciferase inhibitor) were included to calculate the background signal level. All wells were backfilled to a final DMSO concentration of 0.2% to ensure DMSO uniformity across wells. IRAK3-ePL expressing cells (IRAK3-ePL Lenti-X 293T^CRBN/GSPT1 G575N) were washed, trypsinized, counted, and resuspended in fresh DMEM (Gibco) to give a cell concentration of 200,000 cells/mL. 25 μL of cells (5,000 cells/well) were dispensed into the wells of the 384-well plate prespotted with compounds in the previous step and incubated overnight at 37° C./5% CO2. Following incubation, the 384-well plate was taken out of the incubator and left at room temperature for 30 min. InCELL hunter reagent was prepared according to manufacturer's instructions (EA reagent, lysis buffer, and substrate reagent in a 1:1:4 ratio, Cat #96-0002, DiscoverX), which was added to the 384-well plate 25 μL per well. Following the incubation of the plate for 1 h at room temperature, the luminescence signal was read using a ViewLux plate reader. Data was processed and analyzed in ActivityBase software. In short, the average luminescence values of the positive control wells were subtracted from the rest of the wells for background correction, and all luminescence values were normalized to the DMSO control wells. The average value of the DMSO control wells was set to equal 100% of the relative IRAK3-ePL protein levels. […]

Compound `Cc1cccc(-c2cnc(Nc3ccc(N4CCN(C(=O)COc5ccc6c(c5)C(=O)N(C5CCC(=O)NC5=O)C6=O)CC4)cc3)c3nccn23)c1` (stereo not drawn) [Compound 4, 2-(2,6-Dioxopiperidin-3-yl)-5-(2-oxo-2-(4-(4-((5-(m-tolyl)imidazo[1,2-a]pyrazin-8-yl)amino)phenyl)piperazin-1-yl)ethoxy)isoindoline-1,3-dione] came in with a Dmax of 22%.
Same read-out and setting: under `Cc1cccc(-c2cnc(Nc3ccc(N4CCN(C(=O)COc5cccc6c5C(=O)N(C5CCC(=O)NC5=O)C6=O)CC4)cc3)c3nccn23)c1` (stereo not drawn) [Compound 1, 2-(2,6-Dioxopiperidin-3-yl)-4-(2-oxo-2-(4-(4-((5-(m-tolyl)imidazo[1,2-a]pyrazin-8-yl)amino)phenyl)piperazin-1-yl)ethoxy)isoindoline-1,3-dione] stands 11%.
On to `Cc1cccc(-c2cnc(Nc3cnn(C4CCN(C5CCC6(CC5)CCN(C(=O)c5ccc7c(c5)CN(C5CCC(=O)NC5=O)C7=O)CC6)CC4)c3)c3nccn23)c1` (stereo not drawn) [Compound 12, 3-(1-Oxo-5-(9-(4-(4-((5-(m-tolyl)imidazo[1,2-a]pyrazin-8-yl)amino)-1H-pyrazol-1-yl)piperidin-1-yl)-3-azaspiro[5.5]undecane-3-carbonyl)isoindolin-2-yl)piperidine-2,6-dione], for which the Dmax is 76% and the DC50 was 28 nM.
`Cc1cccc(-c2cnc(Nc3cccc(N4CCN(CCNC(=O)COc5ccc6c(c5)C(=O)N(C5CCC(=O)NC5=O)C6=O)CC4)c3)c3nccn23)c1` (stereo not drawn) [Compound 11, 2-((2-(2,6-Dioxopiperidin-3-yl)-1,3-dioxoisoindolin-5-yl)oxy)-N-(2-(4-(3-((5-(m-tolyl)imidazo[1,2-a]pyrazin-8-yl)amino)phenyl)piperazin-1-yl)ethyl)acetamide]: the Dmax worked out at 22%.
On the same count and under the same terms, under `Cc1cccc(-c2cnc(Nc3ccc(N4CCN(C(=O)CCCNC(=O)COc5ccc6c(c5)C(=O)N(C5CCC(=O)NC5=O)C6=O)CC4)cc3)c3nccn23)c1` (stereo not drawn) [Compound 5, 2-((2-(2,6-Dioxopiperidin-3-yl)-1,3-dioxoisoindolin-5-yl)oxy)-N-(4-oxo-4-(4-(4-((5-(m-tolyl)imidazo[1,2-a]pyrazin-8-yl)amino)phenyl)piperazin-1-yl)butyl)acetamide] stands 21%.
`Cc1cccc(-c2cnc(Nc3ccc(N4CCN(C(=O)CCOCCNC(=O)COc5cccc6c5C(=O)N(C5CCC(=O)NC5=O)C6=O)CC4)cc3)c3nccn23)c1` (stereo not drawn) [Compound 3, 2-((2-(2,6-Dioxopiperidin-3-yl)-1,3-dioxoisoindolin-4-yl)oxy)-N-(2-(3-oxo-3-(4-(4-((5-(m-tolyl)imidazo[1,2-a]pyrazin-8-yl)amino)phenyl)piperazin-1-yl)propoxy)ethyl)acetamide] yielded a Dmax of 14%.
Consider `Cc1cccc(-c2cnc(Nc3ccc(N4CCN(CCNC(=O)COc5ccc6c(c5)C(=O)N(C5CCC(=O)NC5=O)C6=O)CC4)cc3)c3nccn23)c1` (stereo not drawn) [Compound 7, 2-((2-(2,6-Dioxopiperidin-3-yl)-1,3-dioxoisoindolin-5-yl)oxy)-N-(2-(4-(4-((5-(m-tolyl)imidazo[1,2-a]pyrazin-8-yl)amino)phenyl)piperazin-1-yl)ethyl)acetamide], for which the maximal degradation (Dmax) turned out to be 51% and the DC50 was determined as 1100 nM.
On to `Cc1cccc(-c2cnc(Nc3ccc(C4CCN(CCNC(=O)COc5ccc6c(c5)C(=O)N(C5CCC(=O)NC5=O)C6=O)CC4)cc3)c3nccn23)c1` (stereo not drawn) [Compound 10, 2-((2-(2,6-Dioxopiperidin-3-yl)-1,3-dioxoisoindolin-5-yl)oxy)-N-(2-(4-(4-((5-(m-tolyl)imidazo[1,2-a]pyrazin-8-yl)amino)phenyl)piperidin-1-yl)ethyl)acetamide], for which the Dmax was 17%.
Regarding `Cc1cccc(-c2cnc(Nc3ccc(N4CCN(C(=O)CCOCCNC(=O)COc5ccc6c(c5)C(=O)N(C5CCC(=O)NC5=O)C6=O)CC4)cc3)c3nccn23)c1` (stereo not drawn) [Compound 6, 2-((2-(2,6-Dioxopiperidin-3-yl)-1,3-dioxoisoindolin-5-yl)oxy)-N-(2-(3-oxo-3-(4-(4-((5-(m-tolyl)imidazo[1,2-a]pyrazin-8-yl)amino)phenyl)piperazin-1-yl)propoxy)ethyl)acetamide], the Dmax is 39%.
As for `Cc1cccc(-c2cnc(Nc3cnn(C4CCN(CCNC(=O)COc5ccc6c(c5)C(=O)N(C5CCC(=O)NC5=O)C6=O)CC4)c3)c3nccn23)c1` (stereo not drawn) [Compound 8, 2-((2-(2,6-Dioxopiperidin-3-yl)-1,3-dioxoisoindolin-5-yl)oxy)-N-(2-(4-(4-((5-(m-tolyl)imidazo[1,2-a]pyrazin-8-yl)amino)-1H-pyrazol-1-yl)piperidin-1-yl)ethyl)acetamide], the Dmax turned out to be 78% and the DC50 was determined as 17 nM.
As for `Cc1cccc(-c2cnc(Nc3cccc(C4CCN(CCNC(=O)COc5ccc6c(c5)C(=O)N(C5CCC(=O)NC5=O)C6=O)CC4)c3)c3nccn23)c1` (stereo not drawn) [Compound 9, 2-((2-(2,6-Dioxopiperidin-3-yl)-1,3-dioxoisoindolin-5-yl)oxy)-N-(2-(4-(3-((5-(m-tolyl)imidazo[1,2-a]pyrazin-8-yl)amino)phenyl)piperidin-1-yl)ethyl)acetamide], the Dmax was found to be 18%.
`Cc1cccc(-c2cnc(Nc3ccc(N4CCN(C(=O)CCCNC(=O)COc5cccc6c5C(=O)N(C5CCC(=O)NC5=O)C6=O)CC4)cc3)c3nccn23)c1` (stereo not drawn) [Compound 2, 2-((2-(2,6-Dioxopiperidin-3-yl)-1,3-dioxoisoindolin-4-yl)oxy)-N-(4-oxo-4-(4-(4-((5-(m-tolyl)imidazo[1,2-a]pyrazin-8-yl)amino)phenyl)piperazin-1-yl)butyl)acetamide] came in with a Dmax of 10%.
